The values that follow are results of earlier work, collected in US20230390244A1, “MODIFIED RELEASE COMPOSITIONS COMPRISING MELATONIN” (Inventia Healthcare Limited, priority 2020, published 2023).

A value given as a limit tells only on which side of the number the result lay.

Test in data set [1]: not given
The source holds these as a separate data set.

Usually half-life stands for how long it takes for the measured level to halve. As to `COc1ccc2[nH]cc(CCNC(C)=O)c2c1` [Melatonin, N-acetyl-5-methoxytryptamine], the “time within which plasma concentrations decline” value (immediate-release formulation, depending on dose) is at most 1.5 h. Also, the half-life (in vivo) was 40 to 50 min. For the same molecule, the “solubility in organic solvents” value in data set [1] (acetone, ethyl acetate and methanol) is “soluble”. The solubility in water result in data set [1] (water) was “slightly soluble”.
